What all share (assay type): in vivo, mouse
Experiment [1] deals with acetylation of histone H3 and H4 in the amygdala. Briefly: Histone H3 and H4 acetylation ELISA in amygdala. To be noted: n=7 mice/group, vs NaCl. How it is done:
Amygdala samples were thawed, and the histone fractions were prepared using a commercial histone extraction kit (Abcam, Cambridge, UK) following manufacturers instruction. The bulk acetylation of histone H3 and H4 was determined using commercial ELISA kits according to the manufacturer's instructions (Abcam, Cambridge, UK). The OD of the samples was measured using a 96 well plate reader at 450 nm (iMark™ Microplate Absorbance Reader; Biorad, CA, USA). The amounts of acetyl histone H3 and H4 were measured by comparing to the kit supplied standards.
The total acetylation levels of histone H3 and H4 were quantified in the amygdala of mice subjected to the DID paradigm following supplementation with sodium valerate or NaCl (n=7 mice/group).
(In general: An ELISA detects its analyte on a solid surface through an enzyme-linked reagent.)

Experiment [2] concerns gene expression in the amygdala. Briefly: Bulk RNA-seq of amygdala (DESeq2, IPA). The protocol:
Total RNA was isolated from amygdala samples using the Direct-zol RNA Microprep Kit (Zymoresearch, CA, U.S.A). Quantification of total RNA and assessment of its purity ratios were performed using the NanoDrop 2000 spectrophotometer (Thermo Fisher Scientific, MA, U.S.A, RRID:SCR_018042).
Total RNA libraries were prepared for transcriptome sequencing using the Zymo-Seq RiboFree Stranded Total RNA library preparation kit (Zymo Research, CA, U.S.A) following the manufacturer's instructions. Further, rRNAs were depleted as part of the sample preparation process. Libraries were validated for length and adapter dimer removal using the Agilent TapeStation 4200 D1000 High Sensitivity assay (Agilent Technologies, CA, U.S.A, RRID:SCR_019398). Subsequent quantification and normalization were carried out using the dsDNA High Sensitivity Assay for Qubit 3.0 (Life Technologies, CA, U.S.A, RRID:SCR_020311). Sample libraries were then prepared for Illumina sequencing following the manufacturer's protocol (Illumina, CA, U.S.A). All the individual samples were consolidated into a single sequencing pool, with proportions targeting 30M reads/sample, and sequenced on the Illumina NovaSeq 6000 platform (Illumina, CA, U.S.A, RRID:SCR_016387).
Raw reads were subjected to adaptor removal and quality control including filtering of low-quality reads. Filtered reads were mapped to the mouse reference genome using STAR (Spliced Transcripts Alignment to a Reference, RRID:SCR_004463). Gene expression level was estimated by transcripts per million of transcript sequences. Principal component analysis (PCA) was performed to visualize overall gene expression differences between compared groups in several major principal components. The analysis of differential gene expression (DEG) was performed using the DESeq2 (RRID:SCR_015687) package for RNA-Seq data. […] The Benjamini-Hochberg procedure, also referred to as the false discovery rate (FDR) method, was applied to correct p-values for multiple testing. We utilized Ingenuity Pathway Analysis (IPA, RRID:SCR_008653) to predict pathways associated with differentially expressed genes and employed Gene Set Enrichment Analysis (GSEA, RRID:SCR_003199) to visualize the outcomes in a heatmap. Right tailed Fisher's exact test was performed in the IPA for identifying significant canonical pathways.
To gain a molecular understanding of the effects of sodium valerate supplementation on brain function, bulk RNA sequencing (RNA-seq) analysis was performed on amygdala tissue of mice that underwent the DID paradigm after sodium valerate or NaCl (n=7 mice/group) supplementation. […] DESeq2 identified a total of 301 DEG at the adjusted p value <0.25, 126 genes at the adjusted p value <0.10, and 75 genes at the adjusted p value <0.05. […] Among these genes, the top five protein coding genes with the highest expression in sodium valerate-supplemented mice are Kcna10 (potassium voltage-gated channel, shaker-related subfamily, member 10), Pln (phospholamban), H60C (histocompatibility antigen 60c), Idi1 (isopentenyl-diphosphate delta isomerase, pseudogene 3) and Snord34 (small nucleolar RNA, C/D box 34). […] PTGS2 is a prostanoids producer that responds to inflammation. Its downregulation in the sodium valerate supplemented group (log2Fold change: −0.65; adjusted p=0.0002) indicates an anti-inflammatory effect of valerate. […] As SCFAs may function in the brain through G protein-coupled receptors (GPCRs), gene expression levels of 85 GPRs were examined in the RNAseq data. […] IPA was performed to identify changes to the molecular signaling pathways and to comparatively assess the sodium valerate effects in the amygdala. […]

For experiment [3], the system named is male C57BL/6J mice. In words: Intermittent-access 20% ethanol two-bottle-choice drinking. How it is done: Twenty male C57BL/6J mice were given access to 20% ethanol for three 24-hour sessions per week. On the first Monday, Wednesday, and Friday, mice were offered increasing concentrations of ethanol (3%, 6%, and 10% w/v, respectively) in one bottle, with water in a second bottle, to acclimate them to ethanol consumption. After this acclimation, mice received one bottle of 20% ethanol and one bottle of water every Monday, Wednesday, and Friday for 24 hours. To minimize side bias, the position of the bottles in the cage was alternated between sessions.
For the first 8 weeks, mice received intraperitoneal (i.p.) injections of phosphate-buffered saline (PBS) 30 minutes prior to each ethanol session to establish stable ethanol consumption (g/kg) and ethanol preference (ethanol intake as a proportion of total fluid intake). In the following 4 weeks (12 sessions), mice were randomly assigned to receive i.p. injections of either sodium valerate or sodium chloride (NaCl) at a dose of 600 mg/kg, 30 minutes before each ethanol session (n=10 per group). Ethanol and water consumption, as well as ethanol preference, were measured throughout the study to assess the effects of sodium valerate on ethanol drinking behavior compared to the NaCl control. After each 24-hour access period, the ethanol and water bottles were weighed, and mouse body weights were recorded to calculate ethanol intake (g/kg/24 hours) and water intake (mL/kg/24 hours). Ethanol preference was calculated as the ratio of ethanol intake to total fluid intake.

Regarding `CCCCC(=O)[O-].[Na+]` [sodium valerate], the “increase in H3 acetylation in the amygdala” value in experiment [1] was “not statistically significant”. Moreover, in experiment [1] (p<0.01), the “H4 acetylation in the amygdala” value is listed as “significantly increased”. Moreover, in experiment [2], the “MAPKs at the RNA level” value is “downregulated” and the “six mitochondrial genes encoding subunits of NADH dehydrogenase (Complex I)” value is reported as “consistently upregulated”. Also, in experiment [2] (adjusted p <0.05), the “downregulated genes among the 75 significant DEG” value is listed as 28 and the “upregulated genes among the 75 significant DEG” value is 47. Besides, the “PTGS2 expression, log2Fold change” value in experiment [2] (adjusted p=0.0002) is given as −0.65. In experiment [2] (unadjusted p<0.01), the “GPR158 expression, log2Fold change” value is given as −0.26 and the “Gpr56 expression, log2Fold change” value is 0.28. The “ethanol consumption, week 11” value in experiment [3] (600 mg/kg i.p. 30 min before each session, n=10, baseline 24.38±4.19, p<0.001) is on record as 15.47±1.49 g/kg/24 hours. The “ethanol preference, week 11” value in experiment [3] (600 mg/kg i.p. 30 min before each session, n=10, baseline 66.81±4.8%, p<0.01) is on record as 54.26±4.5%. For the same compound, the “ethanol intake, week 12” value in experiment [3] (600 mg/kg i.p. 30 min before each session, n=10, p<0.001 vs baseline) is recorded as 13.42±1.60 g/kg/24 hours. Further, in experiment [3] (600 mg/kg i.p. 30 min before each session, n=10, p<0.01 vs baseline), the “ethanol preference, week 12” value turned out to be 52.06±3.92%. Moreover, in experiment [3] (600 mg/kg i.p., weeks 11 and 12, p<0.001 for both weeks), the “ethanol consumption compared to the NaCl control group” value was “significantly lower”. Moreover, in experiment [3] (600 mg/kg i.p., weeks 11 and 12, p<0.01 for both weeks), the “ethanol preference compared to the NaCl control group” value is reported as “significantly lower”.

The record behind these values is patent US20250387360A1, “Methods and Compositions for Treatment of Addiction” (University of Connecticut, priority 2024, published 2025).
